Key:
[1] = test system: Hep-G2-Red-FLuc intrahepatic tumors; experiment: Orthotopic xenograft model of Hep-G2-Red-FLuc human HCC; assay type: in vivo, mice
From the text: Next, we evaluated the effects of STR-V-53 on tumor growth in an orthotopic murine model of Hep-G2-Red-FLuc Bioware Brite Cell Line (PerkinElmer) in mice. Mice (6–8 weeks old) were orthotopically implanted through a direct intrahepatic artery injection with Hep-G2-Red-FLuc cells according to published protocols.[38] We used the Red-Fluc expression to confirm tumor implantation by bioluminescent imaging using IVIS. Treatment began after imaging confirmed the establishment of intrahepatic tumors (approximately 7 days). Mice were grouped into cohorts with similar average relative chemiluminescence. Tumor-bearing mice in the treatment groups were injected daily with 200 μL of solution of STR-V-53, SORA, or a combination of STR-V-53 and SORA for 21 days via the i.p. route. No treatment group received vehicle only. After treatment, mice were imaged again, sacrificed, and liver samples were harvested to determine the effects of treatment on tumor size by measurement with calipers. […] Moreover, the combination therapy of SORA (10 mg/kg) and STR-V-53 (25 mg/kg) is more efficacious than either drug as a standalone agent.
Signaling Technology), respectively, for immunostaining. […]
(Armenian Hamster monoclonal antibody, clone 2H8, Millipore). Positive cells were counted from five random fields for each HCC tissue section. […]
monitored by high-frequency ultrasonography. […]

[2] = Tissue distribution by LC-MS; assay type: in vivo; conditions: both sexes, healthy mice, i.p. 25 mg/kg
Description: To determine if liver tissue accumulation plays a role in the observed in vivo efficacy of STR-V-53, we used LC-MS to evaluate the distribution of STR-V-53 in selected tissues (liver and lungs) and plasma. We analyzed samples from healthy mice exposed to STR-V-53 (i.p. injection) at 25 mg/kg for 8 h. […] The average level of STR-V-53 in circulation in the plasma of healthy mice was ∼ […] 8 h postinjection. In contrast, the level of STR-V-53 in the liver was approximately 4 times its plasma level (Figure 5d). […]
for another 48 h. Cells were washed with cold 1x PBS solution twice and trypsinized.
Subsequently, cells were collected using 5 mL 1x PBS buffer and fixed overnight at -20 °C using 70% ethanol. Cells were centrifuged in 1x PBS on day 2 at 4 °C with a spin speed of 3,000g, re-suspended in 1x PBS, and centrifuged again under the same condition. The supernatant was removed, and the cell pellets were re-suspended with 500 µL of 200 ug/mL RNase for 30 min.
Then cells were treated with another 500 µL of 100 ug/mL PI staining at room temperature for 30 min. The cell cycle was analyzed with BD FACS Aria Illu analyzer, and the data were […]
The stability of STR-V-53 in murine and human plasmas was determined through a contract agreement with Cyprotex, an Evotec Company (https://www.cyprotex.com)
Maximum tolerated dose determination
C57BL/6 mice, 6–8 weeks old, 3 males and 3 females per treatment group, were injected […]
days in Kolliphor/DMA/water vehicle. We measured body weight and monitored daily food consumption, overall health, and mortality. On the eighth day, mice were sacrificed by cervical dislocation, and organs were harvested and frozen at −80 ◦C.
Tissue distribution studies
C57Bl/6 mice, 6–8 weeks old, 3 males and 3 females per treatment group, were injected […]
the injection, organs were harvested and frozen at −80 °C for subsequent quantification by LC-

[3] = test system: Hep-G2 cells; experiment: RNA-seq gene set enrichment analysis (Hallmark and GOBP GSEA); assay type: cell-based, human; conditions: 24 h
Description: To obtain transcriptome level evidence that may shed light on the HCC-selectivity and/or the enhanced potency of the combination of STR-V-53 with anti-PD-1 antibody, we performed RNA sequencing (RNA-seq) analysis on STR-V-53-treated Hep-G2 cells, incubated at IC50 and 2× IC50 for 24 h, relative to the untreated (DMSO) control. We first conducted gene set enrichment analysis (GSEA) using hallmark and gene ontology biological process (GOBP) gene sets to analyze the effect of STR-V-53 vs DMSO-treated control on the Hep-G2 transcriptome.[42],[43] […] Negative enrichment of the G2 M checkpoint pathway supports the finding that STR-V-53 induced S phase arrest in Hep-G2 cells (see Figure 4). […]
and allowed to grow for 48 hours.
RCF, with this washing step repeated twice. Next, using RNeasy Plus Mini Kit and Qiagen QIAcube […]
determined using a DeNovix spectrophotometer. Subsequently, quality control of the RNA samples was […]
(base call error rate of […]).
FASTQ files of samples were analyzed through the RNA-seq pipeline provided by the Gryder lab1. Reads were aligned to hg38 using STAR version 2.5.3a, and gene expression was calculated as Transcripts per Million mapped reads (TPM) using RSEM version 1.3.3 and filtered for coding genes. Differentially expressed genes lists were generated for each sample by calculating log2 fold change of the averaged sample TPM versus the averaged DMSO-treated control cells TPM and filtering for genes with |log2 fold change| > -1 and false discovery rate < 0.25. Hallmark2 and gene ontology biological processes (GOBP)3 gene set enrichment analysis (GSEA) was performed on the differentially expressed gene lists using the GSEA software (parameters: Run GSEAPreranked, Collapse/Remap- No_Collapse)4. GSEA results were interpreted and visualized using scripts provided by the Gryder lab1.Volcano plots were generated using DESeq2v1.41.1 and visualized with the ggplot2 R packages5,6. […]

[4] = molecular target: HDAC3/ NCOR2 (Homo sapiens, UniProt O15379); experiment: HDAC isoform inhibition (BPS Bioscience)
Chain of HDAC3/ NCOR2 (O15379 whole entry, canonical isoform): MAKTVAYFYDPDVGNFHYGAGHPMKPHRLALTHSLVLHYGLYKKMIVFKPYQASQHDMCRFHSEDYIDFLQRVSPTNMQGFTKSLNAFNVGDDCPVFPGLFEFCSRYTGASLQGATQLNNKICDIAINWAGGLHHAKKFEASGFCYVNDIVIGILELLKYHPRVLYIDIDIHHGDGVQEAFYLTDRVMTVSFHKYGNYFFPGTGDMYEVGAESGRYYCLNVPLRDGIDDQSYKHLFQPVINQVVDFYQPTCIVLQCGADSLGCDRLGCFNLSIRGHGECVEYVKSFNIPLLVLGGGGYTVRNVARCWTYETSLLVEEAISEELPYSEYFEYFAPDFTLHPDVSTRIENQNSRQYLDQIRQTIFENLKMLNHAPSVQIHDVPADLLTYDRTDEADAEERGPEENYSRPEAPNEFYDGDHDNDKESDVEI
Chain of HDAC3/ NCOR2 (Q9Y618 395-489 partner limits assumed): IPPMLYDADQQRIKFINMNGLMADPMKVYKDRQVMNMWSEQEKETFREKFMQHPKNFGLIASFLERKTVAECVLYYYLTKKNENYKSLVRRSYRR

[5] = molecular target: HDAC5 (Homo sapiens, UniProt Q9UQL6); experiment: HDAC isoform inhibition (BPS Bioscience)
Chain of HDAC5 (Q9UQL6 whole entry, canonical isoform): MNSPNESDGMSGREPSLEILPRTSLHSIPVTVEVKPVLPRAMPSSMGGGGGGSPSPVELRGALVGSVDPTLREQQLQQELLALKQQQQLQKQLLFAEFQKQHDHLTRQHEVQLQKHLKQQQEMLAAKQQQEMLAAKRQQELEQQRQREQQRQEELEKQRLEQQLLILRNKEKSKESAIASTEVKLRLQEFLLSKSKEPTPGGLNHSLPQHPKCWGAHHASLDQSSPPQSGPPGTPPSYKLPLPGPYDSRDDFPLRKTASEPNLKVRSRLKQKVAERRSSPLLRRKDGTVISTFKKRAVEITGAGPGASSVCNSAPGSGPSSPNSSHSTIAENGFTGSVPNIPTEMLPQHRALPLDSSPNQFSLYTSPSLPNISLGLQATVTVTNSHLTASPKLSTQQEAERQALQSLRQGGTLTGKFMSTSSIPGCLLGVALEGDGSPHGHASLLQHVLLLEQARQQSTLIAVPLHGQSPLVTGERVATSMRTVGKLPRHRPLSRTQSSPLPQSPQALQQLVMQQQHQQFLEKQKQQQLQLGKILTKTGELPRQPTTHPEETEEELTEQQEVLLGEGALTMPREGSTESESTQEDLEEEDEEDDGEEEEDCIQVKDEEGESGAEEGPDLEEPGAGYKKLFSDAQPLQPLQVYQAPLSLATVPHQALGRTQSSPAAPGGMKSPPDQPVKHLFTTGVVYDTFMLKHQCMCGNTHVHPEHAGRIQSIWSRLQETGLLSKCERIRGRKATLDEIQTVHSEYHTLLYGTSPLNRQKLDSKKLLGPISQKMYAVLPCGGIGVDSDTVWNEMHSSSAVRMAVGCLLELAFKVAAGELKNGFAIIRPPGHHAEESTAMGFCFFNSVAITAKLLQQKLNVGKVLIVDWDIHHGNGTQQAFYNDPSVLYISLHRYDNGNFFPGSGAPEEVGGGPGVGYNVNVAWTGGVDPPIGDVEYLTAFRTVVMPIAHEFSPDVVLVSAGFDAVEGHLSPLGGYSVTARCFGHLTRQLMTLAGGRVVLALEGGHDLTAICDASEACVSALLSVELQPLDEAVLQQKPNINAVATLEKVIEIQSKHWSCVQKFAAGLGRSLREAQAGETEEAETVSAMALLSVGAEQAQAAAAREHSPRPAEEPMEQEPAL

Structure (SMILES): O=C(CCCCCCn1cc(-c2ccc(O[C@H]3O[C@H](CO)[C@@H](O)[C@H](O)[C@H]3O)cc2)nn1)NO [STR-V-53]
- Tumor growth inhibition (TGI) ([1]; 25 mg/kg daily i.p. for 21 days): 60%
- Tumor growth inhibition (TGI) ([1]; 50 mg/kg daily i.p. for 21 days): 68%
- Kp at 8 h ([2]; C57Bl/6, mouse, liver (relative to plasma), ip, 8 h, read-out: Level in the liver relative to plasma level): ~4
- concentration at 8 h ([2]; C57Bl/6, mouse, plasma, ip, 8 h postinjection, read-out: Average level in plasma): ~0.01 ng/mL
- Level in the lungs ([2]; 8 h): below the detection limit
- NES, G2/M checkpoint (Hallmark GSEA) ([3]; 2× IC50 (20 μM)): −2.2
- NES, MYC targets v1 (Hallmark GSEA) ([3]; 2× IC50 (20 μM)): −2.3
- NES, MYC targets v2 (Hallmark GSEA) ([3]; 2× IC50 (20 μM)): −2.6
- NES, PI3K/Akt/mTOR signaling (Hallmark GSEA) ([3]; 2× IC50 (20 μM)): −1.7
- NES, antimicrobial humoral immune response mediated by an antimicrobial peptide (GOBP GSEA) ([3]; 2× IC50 (20 μM)): 1.9
- NES, cytokine-mediated signaling pathway (GOBP GSEA) ([3]; 2× IC50 (20 μM)): −1.4
- NES, glucose-regulated transcription genes (GOBP GSEA) ([3]; 2× IC50 (20 μM)): −1.8
- NES, humoral immune response (GOBP GSEA) ([3]; 2× IC50 (20 μM)): 1.7
- NES, innate immune response in the mucosa (GOBP GSEA) ([3]; 2× IC50 (20 μM)): 2.3
- NES, p53 pathway (Hallmark GSEA) ([3]; 2× IC50 (20 μM)): 1.6
- NES, positive regulation of glucose import (GOBP GSEA) ([3]; 2× IC50 (20 μM)): −1.6
- NES, G2/M checkpoint (Hallmark GSEA) ([3]; IC50 (10 μM)): −2.9
- NES, MYC targets v1 (Hallmark GSEA) ([3]; IC50 (10 μM)): −2.6
- NES, MYC targets v2 (Hallmark GSEA) ([3]; IC50 (10 μM)): −2.3
- NES, antimicrobial humoral immune response mediated by an antimicrobial peptide (GOBP GSEA) ([3]; IC50 (10 μM)): 1.9
- NES, glucose-regulated transcription genes (GOBP GSEA) ([3]; IC50 (10 μM)): −1.8
- NES, humoral immune response (GOBP GSEA) ([3]; IC50 (10 μM)): 1.9
- NES, innate immune response in the mucosa (GOBP GSEA) ([3]; IC50 (10 μM)): 2.1
- IC50 [4]: 0.021 µM
- IC50 [5]: 7 µM
